In doi:10.1101/2025.01.02.631061v1 (biorxiv, 2025):
Read-outs that look alike come from different tables or passages of the source.

Columns and labels:
UnBGl1 [1] = assay: pNP release, absorbance […] nm, Michaelis-Menten; assay type: biochemical, soil metagenome; conditions: pH 6.0, 55 °C, 10 min
UnBGl1 [2] = conditions: optimum pH 6.5, 55 °C, 10 min
UnBGl1 [3] = conditions: pH 6.0, 55 °C, 10 min
UnBGl1 [4] = conditions: optimum pH 5.5, 50 °C, 30 min
UnBGl1 [5] = conditions: pH 6.0, 50 °C, 30 min

Structure (SMILES)	Km (UnBGl1 [1]) [mM]	Km (UnBGl1 [2]) [mM]	Km (UnBGl1 [3]) [mM]	Km (UnBGl1 [4]) [mM]	Km (UnBGl1 [5]) [mM]
O=[N+]([O-])c1ccc(O[C@@H]2O[C@H](CO)[C@@H](O)[C@H](O)[C@H]2O)cc1 [4-nitrophenyl β-D-glucopyranoside]	0.92 ± 0.05	0.65 ± 0.04	7.35 ± 3		
OC[C@H]1O[C@@H](O[C@H]2[C@H](O)[C@@H](O)C(O)O[C@@H]2CO)[C@H](O)[C@@H](O)[C@@H]1O (some centres unmarked) [cellobiose]				22.9 ± 1.1	34.6 ± 2.4
